Source: patent publication US8940333B2, “Amphiphilic block copolymers and nanoparticles comprising the same” (priority 2005, dated 2015)

Experiments:
[1] = system: macrophage culture (RAW 264.7); test: In vitro stealth test: reactive oxygen species (DCFDA to DCF) in macrophage culture, flow cytometer; format: cell-based; details: RAW 264.7, 1 μm PMA, 24-hour activation (positive control)
[2] = system: erythrocyte; test: Hemolysis test (ASTM F756); format: cell-based

| Compound | mean fluorescent intensity of DCF [1] | Hemolytic grade [2] | Hemolytic index (%) [2] [%] |
| --- | --- | --- | --- |
| CCCCCCCCCCCCCC(=O)O[C@@H]1[C@@H](C)[C@@]2(O)[C@@H](C=C(CO)C[C@]3(O)C(=O)C(C)=C[C@@H]23)[C@@H]2C(C)(C)[C@]12OC(C)=O [PMA] | 20.13 |  |  |
| CC[C@@]1(O)C(=O)OCc2c1cc1n(c2=O)Cc2cc3ccccc3nc2-1 [Camptothecin] |  | slight hemolysis | 5.84 |
